We go through 19 molecules from patent US12391697B2, “Condensed bi-heterocycles as inhibiting agents for Bruton's tyrosine kinase” (BIOGEN MA INC., priority 2019, dated 2025).

The target of one test is BTK (Homo sapiens (Human), UniProt Q06187). As to the kind of experiment: In Vitro BTK Kinase Assay: Btk-PolyGAT-LS Assay. The class given is biochemical. The settings on record: active BTK enzyme 0.25 nM, ATP 10 μM, polyGAT 100 nM, 30 minutes. In outline:
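Recombinant BTK (0.25 nM) phosphorylating 100 nM polyGAT at 10 μM ATP in Tris-HCl pH 7.5 buffer with MgCl2, DTT, Triton X-100 and casein, 30 min, then EDTA stop.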

In test [1] the test system is CD69 expression on CD19+ B cells in whole blood. As to the kind of experiment: In Vitro Whole Blood CD69 Assay. The format is cell-based, Human. As to the method: In Vitro Whole Blood CD69 Assay
Human heparinized venous blood from health donors was aliquoted into 96-well plate and “spiked” with serial dilutions of formula I compounds in DMSO or with DMSO without drug. The final concentration of DMSO in all wells was 0.1%. The plate was incubated at 37° C. for 30 min. Drug-containing samples were stimulated with 0.1 μg/mL mouse anti-human IgD-dextran (1A62) or 20 μg/mL polyclonal rabbit F(ab′)2 anti-human IgD. Phosphate-buffered saline (PBS) was added to the negative control unstimulated sample and the plates were incubated overnight (18 to 22 hours) at 37° C. Cells were stained with fluorochrome-conjugated anti-CD19 and anti-CD69 antibodies. Lyse/fix solution was used to remove red blood cells by hypotonic lysis and to fix the remaining cells, which were then analyzed by flow cytometry. CD19+ B cells were gated and analyzed for CD69 expression. The percentage of B cells expressing CD69 was plotted versus the log 10 of the concentration of the drug and the best-fit curves (variable Hill slope) were generated to obtain the IC50 value.

The mark [2] stands for this setting: Homo sapiens, B-cell, human heparinized whole blood, anti-human IgD stimulation, percentage of CD19+ B cells expressing CD69, read-out: IC50.

pIC50: −log10 of the molar value. Where a name gives a salt, the structure may show the parent alone. Read-outs that look alike come from different tables or passages of the source.

BTK, sequence (Q06187 whole entry): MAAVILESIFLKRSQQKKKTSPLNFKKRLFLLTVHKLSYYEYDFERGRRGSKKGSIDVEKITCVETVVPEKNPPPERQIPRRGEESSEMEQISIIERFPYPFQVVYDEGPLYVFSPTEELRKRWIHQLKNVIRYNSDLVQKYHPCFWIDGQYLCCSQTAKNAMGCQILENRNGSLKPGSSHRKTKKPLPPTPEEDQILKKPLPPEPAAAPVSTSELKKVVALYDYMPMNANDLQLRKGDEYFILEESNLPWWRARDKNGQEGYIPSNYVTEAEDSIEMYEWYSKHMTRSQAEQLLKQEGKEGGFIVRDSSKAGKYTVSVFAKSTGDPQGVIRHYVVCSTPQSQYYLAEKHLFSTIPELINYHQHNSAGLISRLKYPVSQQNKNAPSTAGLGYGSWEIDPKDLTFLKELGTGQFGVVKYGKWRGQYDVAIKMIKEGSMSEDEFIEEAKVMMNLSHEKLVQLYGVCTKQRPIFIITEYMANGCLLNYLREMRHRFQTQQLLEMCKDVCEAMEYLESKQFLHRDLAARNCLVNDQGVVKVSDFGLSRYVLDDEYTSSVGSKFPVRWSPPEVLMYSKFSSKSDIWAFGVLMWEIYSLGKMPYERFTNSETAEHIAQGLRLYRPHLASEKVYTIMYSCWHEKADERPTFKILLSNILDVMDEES

In the case of `CC(C)(C)c1nc(C(=O)NCc2ccc(-c3ncnn4cc(N5CCOCC5)cc34)cc2Cl)no1` [Example 15, 5-(tert-butyl)-N-(2-chloro-4-(6-morpholinopyrrolo[2,1-f][1,2,4]triazin-4-yl)benzyl)-1,2,4-oxadiazole-3-carboxamide trifluoroacetate], the pIC50 – broadly, the IC50 on a negative log10 scale, so that one unit is a factor of ten – is not below 9.00 against BTK and 6.00 to 7.00 in test [1] (setting [2]).
For `Cc1cc(-c2ncnn3cc(-c4ccn(C)n4)cc23)ccc1CNC(=O)c1noc(C(C)(C)C)n1` [Example 9, 5-(tert-butyl)-N-(2-methyl-4-(6-(1-methyl-1H-pyrazol-3-yl)pyrrolo[2,1-f][1,2,4]triazin-4-yl)benzyl)-1,2,4-oxadiazole-3-carboxamide trifluoroacetate] the same measures were not below 9.00 and 6.00 to 7.00.
For the molecule `Cc1cc(-c2ncnn3cc(-c4cnn(C)c4)cc23)ccc1[C@@H](C)NC(=O)c1nc(C(C)(C)C)no1` [Example 57, (R)-3-(tert-butyl)-N-(1-(2-methyl-4-(6-(1-methyl-1H-pyrazol-4-yl)pyrrolo[2,1-f][1,2,4]triazin-4-yl)phenyl)ethyl)-1,2,4-oxadiazole-5-carboxamide], the pIC50 is not below 9.00 against BTK and 6.00 to 7.00 in test [1] (setting [2]).
Consider `CC(C)(C)c1noc(C(=O)NCc2ccc(-c3ncnn4cc(N5CCOCC5)cc34)c(F)c2Cl)n1` [Example 14, 3-(tert-butyl)-N-(2-chloro-3-fluoro-4-(6-morpholinopyrrolo[2,1-f][1,2,4]triazin-4-yl)benzyl)-1,2,4-oxadiazole-5-carboxamide trifluoroacetate], for which the pIC50 against BTK is not below 9.00; in test [1] (Homo sapiens, B-cell) it was 6.00 to 7.00.
Take `COc1c(CNC(=O)c2nc(C(C)(C)C)no2)ccc(-c2ncnn3cc(-c4cnn(C)c4)cc23)c1F` [Example 45, 3-(tert-butyl)-N-(3-fluoro-2-methoxy-4-(6-(1-methyl-1H-pyrazol-4-yl)pyrrolo[2,1-f][1,2,4]triazin-4-yl)benzyl)-1,2,4-oxadiazole-5-carboxamide]: the pIC50 against BTK was not below 9.00; in test [1] (setting [2]), 6.00 to 7.00.
The corresponding values for `Cc1c(CNC(=O)c2nc(C(C)(C)C)no2)ccc(-c2ncnn3cc(N4CCN(C)[C@@H](C)C4)cc23)c1F` (single isomer, unassigned) [Example 26] are not below 9.00 and 6.00 to 7.00.
As for `Cc1cc(-c2ncnn3cc(C4=CCOCC4)cc23)ccc1CNC(=O)c1noc(C(C)(C)C)n1` [Example 6, 5-(tert-butyl)-N-(4-(6-(3,6-dihydro-2H-pyran-4-yl)pyrrolo[2,1-f][1,2,4]triazin-4-yl)-2-methylbenzyl)-1,2,4-oxadiazole-3-carboxamide], the pIC50 on BTK was not below 9.00; in test [1] (setting [2]) it was 6.00 to 7.00; in test [1] (human heparinized whole blood, anti-human IgD stimulation, percentage of CD19+ B cells expressing CD69, read-out: IC50), more than 7.00.
On to `COCCn1cc(-c2cc3c(-c4ccc(CNC(=O)c5noc(C(C)(C)C)n5)c(C)c4)ncnn3c2)cn1` [Example 7, 5-(tert-butyl)-N-(4-(6-(1-(2-methoxyethyl)-1H-pyrazol-4-yl)pyrrolo[2,1-f][1,2,4]triazin-4-yl)-2-methylbenzyl)-1,2,4-oxadiazole-3-carboxamide], for which the pIC50 against BTK was not below 9.00; in test [1] (setting [2]) it was more than 7.00.
For `Cc1cc(-c2ncnn3cc(N4CCOCC4)cc23)ccc1CNC(=O)c1noc(C(C)(C)C)n1` [Example 5, 5-(tert-butyl)-N-(2-methyl-4-(6-morpholinopyrrolo[2,1-f][1,2,4]triazin-4-yl)benzyl)-1,2,4-oxadiazole-3-carboxamide trifluoroacetate] the same measures were not below 9.00 and 6.00 to 7.00.
For `COc1cc(-c2ncnn3cc(-c4cnn(C)c4)cc23)ccc1CNC(=O)c1noc(C(C)(C)C)n1` [Example 35, 5-(tert-butyl)-N-(2-methoxy-4-(6-(1-methyl-1H-pyrazol-4-yl)pyrrolo[2,1-f][1,2,4]triazin-4-yl)benzyl)-1,2,4-oxadiazole-3-carboxamide hydrochloride] the same measures were not below 9.00 and 6.00 to 7.00.
On to `Cc1cc(-c2ncnn3cc(N4CCC(F)(F)C4)cc23)ccc1CNC(=O)c1noc(C(C)(C)C)n1` [Example 12, 5-(tert-butyl)-N-(4-(6-(3,3-difluoropyrrolidin-1-yl)pyrrolo[2,1-f][1,2,4]triazin-4-yl)-2-methylbenzyl)-1,2,4-oxadiazole-3-carboxamide trifluoroacetate], for which the pIC50 is not below 9.00 on BTK and 6.00 to 7.00 in test [1] (setting [2]).
The corresponding values for `Cc1cc(-c2ncnn3cc(N4C[C@@H](C)O[C@@H](C)C4)cc23)ccc1CNC(=O)c1noc(C(C)(C)C)n1` [Example 39, 5-(tert-butyl)-N-(4-(6-((2,6-syn)-2,6-dimethylmorpholino)pyrrolo[2,1-f][1,2,4]triazin-4-yl)-2-methylbenzyl)-1,2,4-oxadiazole-3-carboxamide] are not below 9.00 and 6.00 to 7.00.
The corresponding values for `Cc1cc(-c2ncnn3cc(-c4cnn(C)c4)cc23)ccc1CNC(=O)c1noc(C2(C)CC2)n1` [Example 40, N-(2-methyl-4-(6-(1-methyl-1H-pyrazol-4-yl)pyrrolo[2,1-f][1,2,4]triazin-4-yl)benzyl)-5-(1-methylcyclopropyl)-1,2,4-oxadiazole-3-carboxamide] are not below 9.00 and 6.00 to 7.00.
The corresponding values for `CO[C@@H]1CCN(c2cc3c(-c4ccc(CNC(=O)c5nc(C(C)(C)C)no5)c(C)c4)ncnn3c2)C1` (single isomer, unassigned) [Example 24] are not below 9.00 and 6.00 to 7.00.
On to `Cc1cc(-c2ncnn3cc(N4CCN(C5COC5)CC4)cc23)ccc1CNC(=O)c1noc(C(C)(C)C)n1` [Example 32, 5-(tert-butyl)-N-(2-methyl-4-(6-(4-(oxetan-3-yl)piperazin-1-yl)pyrrolo[2,1-f][1,2,4]triazin-4-yl)benzyl)-1,2,4-oxadiazole-3-carboxamide trifluoroacetate], for which the pIC50 on BTK was not below 9.00; in test [1] (setting [2]), 6.00 to 7.00.
For `COCCOc1cc2c(-c3ccc(CNC(=O)c4noc(C(C)(C)C)n4)c(C)c3)ncnn2c1` [Example 58, 5-(tert-butyl)-N-(4-(6-(2-methoxyethoxy)pyrrolo[2,1-f][1,2,4]triazin-4-yl)-2-methylbenzyl)-1,2,4-oxadiazole-3-carboxamide] the same measures were not below 9.00 and more than 7.00.
For `Cc1c([C@@H](C)NC(=O)c2noc(C(C)(C)C)n2)ccc(-c2ncnn3cc(N4CCOCC4)cc23)c1F` [Example 31, (R)-5-(tert-butyl)-N-(1-(3-fluoro-2-methyl-4-(6-morpholinopyrrolo[2,1-f][1,2,4]triazin-4-yl)phenyl)ethyl)-1,2,4-oxadiazole-3-carboxamide] the same measures were not below 9.00 and 6.00 to 7.00.
Consider `Cc1c(CNC(=O)c2nc(C(C)(C)C)no2)ccc(-c2ncnn3cc(N4CCOCC4)cc23)c1F` [Example 2, 3-(tert-butyl)-N-(3-fluoro-2-methyl-4-(6-morpholinopyrrolo[2,1-f][1,2,4]triazin-4-yl)benzyl)-1,2,4-oxadiazole-5-carboxamide], for which the pIC50 on BTK was not below 9.00; in test [1] (setting [2]), 6.00 to 7.00.
The corresponding values for `CC(C)(C)c1nc(C(=O)NCc2ccc(-c3ncnn4cc(N5CCOCC5)cc34)cc2C2CC2)no1` [Example 37, 5-(tert-butyl)-N-(2-cyclopropyl-4-(6-morpholinopyrrolo[2,1-f][1,2,4]triazin-4-yl)benzyl)-1,2,4-oxadiazole-3-carboxamide] are not below 9.00 and less than 6.00.
